The text below walks through data of US6486185B1, “3-heteroarylidene-2-indolinone protein kinase inhibitors” (Sugen, Inc., priority 1997, dated 2002).

For the experiment, the target named is HER2 Kinase (Homo sapiens, UniProt P04626). Description: HER-2 ELISA: EGF receptor-HER2 chimeric receptor assay in whole cells. The note with it: 50% inhibition of PTK activity over control. Format: cell-based. Here is the method: The cellular/catalytic assays described herein are performed in an ELISA format. […] The cells are lysed and the lysate is transferred to the wells of an ELISA plate previously coated with a specific antibody recognizing the substrate of the enzymatic phosphorylation reaction. Non-substrate components of the cell lysate are washed away and the amount of phosphorylation on the substrate is detected with an antibody specifically recognizing phosphotyrosine compared with control cells that were not contacted with a test compound. HER-2 ELISA […] EGF Receptor-HER2 Chimeric Receptor Assay in Whole Cells. HER2 kinase activity in whole EGFR-NIH3T3 cells are measured as described below: Materials and Reagents. The following materials and reagents can be used to conduct the assay: a. EGF: stock concentration: 16.5 ILM; EGF 201, TOYOBO, Co., Ltd. Japan. b. 05-101 (UBI) (a monoclonal antibody recognizing an EGFR extracellular domain). c. Anti-phosphotyrosine antibody (anti-Ptyr) (polyclonal)(see, Fendley, et al., supra). d. Detection antibody: Goat anti-rabbit lgG horse radish peroxidase conjugate, TAGO, Inc., Burlingame, Calif. e. TBST buffer: [table] f. HNTG 5×stock: [table] g. ABTS stock: [table] h. Stock reagents of: [table] Procedure. The following protocol is used: A. Pre-coat ELISA Plate […] Coat ELISA plates (Corning, 96 well, Cat. #25805-96) with 05-101 antibody at 0.5 µg per well in PBS, 100 μL final volume/well, and store overnight at 4° C. Coated plates are good for up to 10 days when stored at 4° C. 2. On day of use, remove coating buffer and replace with 100 μL blocking buffer (5% Carnation Instant Non-Fat Dry Milk in PBS). Incubate the plate, shaking, at room temperature (about 23° C. to 25° C.) for 30 minutes. Just prior to use, remove blocking buffer and wash plate 4 times with TBST buffer. B. Seeding Cells […] An NIH3T3 cell line overexpressing a chimeric receptor containing the EGFR extracellular domain and intracellular HER2 kinase domain can be used for this assay. 2. Choose dishes having 80-90% confluence for the experiment. […]
HER2 Kinase, sequence (P00533 25-645): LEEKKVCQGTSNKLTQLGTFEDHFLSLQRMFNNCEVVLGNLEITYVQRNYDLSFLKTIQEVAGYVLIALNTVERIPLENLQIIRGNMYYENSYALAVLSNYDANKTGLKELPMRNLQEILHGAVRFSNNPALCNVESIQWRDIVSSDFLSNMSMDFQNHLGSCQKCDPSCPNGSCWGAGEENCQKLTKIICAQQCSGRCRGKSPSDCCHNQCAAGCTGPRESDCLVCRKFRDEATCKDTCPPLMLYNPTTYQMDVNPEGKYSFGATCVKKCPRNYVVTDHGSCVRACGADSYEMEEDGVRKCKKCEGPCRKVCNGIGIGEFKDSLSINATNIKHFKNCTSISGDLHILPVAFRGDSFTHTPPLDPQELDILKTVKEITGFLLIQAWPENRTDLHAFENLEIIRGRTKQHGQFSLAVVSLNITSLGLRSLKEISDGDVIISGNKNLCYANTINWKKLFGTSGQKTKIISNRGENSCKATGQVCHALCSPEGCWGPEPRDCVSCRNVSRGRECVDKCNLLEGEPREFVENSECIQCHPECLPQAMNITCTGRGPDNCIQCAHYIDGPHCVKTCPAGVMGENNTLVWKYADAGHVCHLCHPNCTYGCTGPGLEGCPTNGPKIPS
HER2 Kinase, sequence (P04626 676-1255): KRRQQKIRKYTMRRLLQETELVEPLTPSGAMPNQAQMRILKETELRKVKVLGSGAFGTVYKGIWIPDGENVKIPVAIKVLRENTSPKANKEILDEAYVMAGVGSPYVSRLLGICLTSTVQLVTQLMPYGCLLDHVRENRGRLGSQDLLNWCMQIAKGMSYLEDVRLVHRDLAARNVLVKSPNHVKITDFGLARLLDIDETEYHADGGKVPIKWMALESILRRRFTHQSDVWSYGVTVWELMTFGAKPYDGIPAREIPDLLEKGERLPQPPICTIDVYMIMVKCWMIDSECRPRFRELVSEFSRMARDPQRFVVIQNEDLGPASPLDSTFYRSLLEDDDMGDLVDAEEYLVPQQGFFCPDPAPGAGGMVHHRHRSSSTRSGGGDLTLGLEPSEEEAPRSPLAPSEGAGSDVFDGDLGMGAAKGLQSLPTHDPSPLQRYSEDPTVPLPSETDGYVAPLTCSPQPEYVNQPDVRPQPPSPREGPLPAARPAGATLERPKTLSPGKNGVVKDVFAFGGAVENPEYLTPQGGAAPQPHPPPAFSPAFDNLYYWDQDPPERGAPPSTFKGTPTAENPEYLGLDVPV
On the technique in general: An ELISA detects its analyte on a solid surface through an enzyme-linked reagent.
As usually defined, the IC50 is the midpoint of a concentration-inhibition curve. High values mean weaker potency in that assay, low ones greater potency in that assay. Regarding `CCOC(=O)CCc1c(C(=O)OCC)[nH]c(C=C2C(=O)Nc3ccccc32)c1CC(=O)OCC` [3-[2-ethoxycarbonyl-3-(2-ethoxycarbonylethyl)-4-ethoxycarbonylmethyl)pyrrol-5-methylidenyl)-2-indolinone], the half-maximal inhibitory concentration (IC50) was greater than 10 µM. Turning to `CCOC(=O)c1c[nH]c(C=C2C(=O)Nc3ccccc32)c1C` [3-(4-ethoxycarbonyl-3-methylpyrrol-2-methylidenyl)-2-indolinone], the half-maximal inhibitory concentration (IC50) is greater than 100 µM. Regarding `COC(=O)CCc1c[nH]c(C=C2C(=O)Nc3cc(OC)c(OC)cc32)c1C` [3-[4-(2-methoxycarbonylethyl)-3-methylpyrrol-2-methylidenyl]-5,6-dimethoxy-2-indolinone], the IC50 was greater than 50 µM.
